# In patent publication US10189887B2, “Polypeptides and uses thereof for reducing CD95-mediated cell motility” (INSERM (INSTITUT NATIONAL DE LA SANTÉ ET DE LA RECHERCHE …, priority 2014, dated 2019):
# Assays:
# Assay type in all cases: cell-based
# [1] = system: CD95-mediated Ca^2+ response; assay: Calcium response to cl-CD95L in CEM cells; conditions: CEM pre-incubated 1 hr, 10 μM peptide, 100 ng/ml cl-CD95L
# Description: Cells were loaded with Fura2-AM (1 μM) at resting temperature for 30 min in Hank's Balanced Salt Solution (HBSS). After washing with HBSS, the cells were incubated for 15 min in the absence of Fura2-AM to complete de-esterification of the dye. Cells were placed in a thermostated chamber (37° C.) of an inverted epifluorescence microscope (Olympus IX70) equipped with a ×40, UApo/340-1.15 W water-immersion objective (Olympus), and fluorescence micrograph images were captured at 510 nm and at 12-bit resolution by a fast-scan camera (CoolSNAP fx Monochrome, Photometrics). To minimize UV light exposure, 4×4 binning function was used. […]
# T cells were loaded with Fura-PE3-AM (1 μM) at room temperature for 30 min in Hank's Balanced Salt Solution (HBSS). […] Cells were placed in the temperature controlled chamber (37° C.) of an inverted epifluorescence microscope (Olympus IX70) equipped with an ×40 UApo/340-1.15 W water-immersion objective (Olympus), and fluorescence micrograph images were captured at 510 nm and 12-bit resolution by a fast-scan camera (CoolSNAP fx Monochrome, Photometrics). […] The Fura-PE3 ratio (Fratio 340/380) images were analyzed offline with Universal Imaging software, including Metafluor and Metamorph. […] Each experiment was repeated 3 times, and the average of more than 20 single-cell traces was analyzed.
# [2] = system: CD95-mediated Ca^2+ response; assay: Calcium response to cl-CD95L in Jurkat cells (Fura2/FuraPE3 video imaging); conditions: Jurkat pre-incubated 1 hr, 10 μM peptide, 100 ng/ml cl-CD95L
# Description: Cells were loaded with Fura2-AM (1 μM) at resting temperature for 30 min in Hank's Balanced Salt Solution (HBSS). After washing with HBSS, the cells were incubated for 15 min in the absence of Fura2-AM to complete de-esterification of the dye. Cells were placed in a thermostated chamber (37° C.) of an inverted epifluorescence microscope (Olympus IX70) equipped with a ×40, UApo/340-1.15 W water-immersion objective (Olympus), and fluorescence micrograph images were captured at 510 nm and at 12-bit resolution by a fast-scan camera (CoolSNAP fx Monochrome, Photometrics). To minimize UV light exposure, 4×4 binning function was used. Fura2-AM was alternately excited at 340 and 380 nm, and ratios of the resulting images (excitations at 340 and 380 nm and emission filter at 520 nm) were produced at constant intervals (5 s or 10 s according to the stimulus). […] Fluorescent images were pseudocolored using the IMD display mode in MetaFluor and assembled without further manipulation in Photoshop (Adobe). Raw data were acquired with MetaFluor and graphed in Origin (OriginLab). [Ca^2+]i was calculated using the following equation: [Ca^2+]i=Kd(R−Rmin)/(R−Rmax)×Sf2/Sf1, where Kd is the Fura2-AM dissociation constant at the two excitation wavelengths (F340/F380); Rmin is the fluorescence ratio in the presence of minimal calcium, obtained by chelating Ca^2+ with 10 mM EGTA; Rmax is the fluorescence ratio in the presence of excess calcium, obtained by treating cells with 1 μM ionomycin; Sf2 is the fluorescence of the Ca^2+-free form; and Sf1 is the fluorescence of the Ca^2+-bound form of Fura2-AM at excitation wavelengths of 380 and 340 nm, respectively. In some experiments cells were placed in a Ca^2+-free medium consisting of the HBSS described above in which CaCl2 was omitted and 100 μM EGTA was added in order to chelate residual Ca^2+ ions. This medium was added to the cells just before recording to avoid leak of the intracellular calcium stores.
# T cells were loaded with Fura-PE3-AM (1 μM) at room temperature for 30 min in Hank's Balanced Salt Solution (HBSS). After washing, the cells were incubated for 15 min in the absence of Fura-PE3-AM to complete de-esterification of the dye. Cells were placed in the temperature controlled chamber (37° C.) of an inverted epifluorescence microscope (Olympus IX70) equipped with an ×40 UApo/340-1.15 W water-immersion objective (Olympus), and fluorescence micrograph images were captured at 510 nm and 12-bit resolution by a fast-scan camera (CoolSNAP fx Monochrome, Photometrics). To minimize UV light exposure, a 4×4 binning function was used. Fura-PE3 was alternately excited at 340 and 380 nm, and the ratios of the resulting images (emission filter at 520 nm) were produced at constant intervals (10 seconds). The Fura-PE3 ratio (Fratio 340/380) images were analyzed offline with Universal Imaging software, including Metafluor and Metamorph. Fratio reflects the intracellular Ca^2+ concentration changes. Each experiment was repeated 3 times, and the average of more than 20 single-cell traces was analyzed.
# [3] = system: CD95-mediated Ca^2+ response; assay: Calcium response to cl-CD95L in MEF; conditions: MEFs pre-incubated 1 hr, 10 μM peptide; 100 ng/ml cl-CD95L
# Description: (§1) Cells were loaded with Fura2-AM (1 μM) at resting temperature for 30 min in Hank's Balanced Salt Solution (HBSS). After washing with HBSS, the cells were incubated for 15 min in the absence of Fura2-AM to complete de-esterification of the dye. Cells were placed in a thermostated chamber (37° C.) of an inverted epifluorescence microscope (Olympus IX70) equipped with a ×40, UApo/340-1.15 W water-immersion objective (Olympus), and fluorescence micrograph images were captured at 510 nm and at 12-bit resolution by a fast-scan camera (CoolSNAP fx Monochrome, Photometrics). To minimize UV light exposure, 4×4 binning function was used. Fura2-AM was alternately excited at 340 and 380 nm, and ratios of the resulting images (excitations at 340 and 380 nm and emission filter at 520 nm) were produced at constant intervals (5 s or 10 s according to the stimulus). […] Fluorescent images were pseudocolored using the IMD display mode in MetaFluor and assembled without further manipulation in Photoshop (Adobe). Raw data were acquired with MetaFluor and graphed in Origin (OriginLab). […]
# [4] = system: CD95-mediated Ca^2+ response; assay: Calcium response to cl-CD95L in MDA MB 231 cells; conditions: MDA MB 231 pre-incubated 1 hr, 10 μM peptide; 100 ng/ml cl-CD95L
# Description: as §1
substance,measurement,setting,value
TAT-CID: cell penetrating peptide linking the 36-amino acid-stretch of CID (CD95 residues 175 to 210) to the HIV-TAT sequence; SEQ ID NO: 6 (RKKRRQRRRKRKEVQKTCRKHRKENQGSHESPTLNPETVAINLSD; TAT-CID),calcium response to cl-CD95L,[1],abolished the induction of the CD95-mediated Ca^2+ signal
same,calcium response to cl-CD95L,[1]; listed as TAT CID 175-210,completely abolished the calcium response
same,calcium response to cl-CD95L,[2],abolished the induction of the CD95-mediated Ca^2+ signal
same,calcium response to cl-CD95L,[2]; listed as TAT CID 175-210,greatly reduced the calcium response
same,initial phase of the calcium response to cl-CD95L,[3],blocked it
same,calcium response to cl-CD95L,[4],completely abolished the calcium response
